Reference: patent US11753407B2, “Compounds for treating spinal muscular atrophy” (PTC Therapeutics, Inc., priority 2012, dated 2023)

Columns and labels:
[1] = system: SMN2 minigene mRNA (SMN2-A minigene) in HEK293H cells; test: SMN2 minigene mRNA splicing RT-qPCR assay in cultured cells; assay type: cell-based, human; details: Homo sapiens, HEK293-H; concentration increasing full length SMN2 mRNA 1.5-fold relative to vehicle-treated cells; HEK293H cells with SMN2-A minigene, 24 hours, 7-point concentration data; read-out: EC1.5x for production of full length SMN2 mRNA
In short: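 Stable SMN2-A minigene HEK293H; cpd 7-pt 3.16-fold series, 200× in DMSO, 24 h, 37 °C, n=2. Lysates → multiplex RT-qPCR (minigene FL + GAPDH), efficiency-corrected ΔΔCt vs vehicle. EC1.5× = 1.5-fold FL mRNA gain.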

[2] = system: Smn protein in SMA patient fibroblast cells (GM03813); test: Smn protein assay in cultured cells (SMN HTRF); assay type: cell-based, human; details: SMA patient fibroblast cells, 48 hours; for maximum fold (Fold) increase of Smn protein: 7-point concentration data, fold relative to vehicle control; for EC1.5x for Smn protein expression: 7-point concentration curve, SMN HTRF, concentration producing 1.5 times Smn protein vs DMSO vehicle control
In short: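 Fibroblasts, SMA patient; 5,000 cells/well; 7-pt curve, 3.16-fold serial dilution; 48 h, 37 °C, 5% CO2; RIPA lysis 1 h RT; anti-SMN d2 + kryptate overnight RT; HTRF 665/620 nm; fold vs DMSO; EC1.5×, max fold.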

Row | SMILES | melting point [°C] | EC (1.5-fold increase) [1] [µM] | maximum fold (Fold) increase of Smn protein [2] | EC1.5x for Smn protein expression [2]
1 | COc1ccc(-c2cc(=O)n3cc(C4=CCNCC4)ccc3c2)cc1OC [Cpd 245, 2-(3,4-dimethoxyphenyl)-7-(1,2,3,6-tetrahydropyridin-4-yl)-4H-quinolizin-4-one] | 174 to 176 | 0.3 to 1 | ** (a fold increase between >1.2 and ≤1.35 is indicated by two stars (**)) | 
2 | COc1ccc(-c2cc(=O)n3cc(C4=CCN(C)CC4)ccc3c2)cc1OC [Cpd 249, 2-(3,4-dimethoxyphenyl)-7-(1-methyl-1,2,3,6-tetrahydropyridin-4-yl)-4H-quinolizin-4-one] | 194 to 196 | 0.3 to 1 | * (A maximum fold increase of ≤1.2 is indicated by one star (*)) | 
3 | COc1ccc(-c2ccc3nc(C4=CCNCC4)cc(=O)n3c2)cc1F [Cpd 294, 7-(3-fluoro-4-methoxyphenyl)-2-(1,2,3,6-tetrahydropyridin-4-yl)-4H-pyrido[1,2-a]pyrimidin-4-one] | 188 to 192 | < 0.1 | *** (a fold increase between >1.35 and ≤1.5 is indicated by three stars (***)) | * (An EC1.5× for Smn protein expression between >3 μM and ≤10 μM is indicated by one star (*))
4 | Cc1cn2nc(-c3cc(=O)n4cc(C5=CCNCC5)ccc4n3)cc2c(C)n1 [Cpd 342, 2-(4,6-dimethylpyrazolo[1,5-a]pyrazin-2-yl)-7-(1,2,3,6-tetrahydropyridin-4-yl)-4H-pyrido[1,2-a]pyrimidin-4-one] | 207 to 210 | < 0.1 | ***** (a fold increase >1.65 is indicated by five stars (*****)) | **** (an EC1.5x≤0.3 μM is indicated by four stars (****))
5 | Cc1nc2ccc(-c3cc(=O)n4nc(C5CCNCC5)ccc4n3)cc2s1.O=C(O)C(F)(F)F [Cpd 380, 2-(2-methyl-1,3-benzothiazol-6-yl)-7-(piperidin-4-yl)-4H-pyrimido[1,2-b]pyridazin-4-one trifluoroacetate (1:1)] | 230 to 235 | 0.1 to 0.3 | **** (a fold increase between >1.5 and ≤1.65 is indicated by four stars (****)) | *** (an EC1.5× between >0.3 μM and ≤1 μM is indicated by three stars (***))
6 | COc1ccc(-c2cc(=O)n3nc(C4=CCNCC4)ccc3n2)cc1OC [Cpd 398, 2-(3,4-dimethoxyphenyl)-7-(1,2,3,6-tetrahydropyridin-4-yl)-4H-pyrimido[1,2-b]pyridazin-4-one] | 195 to 200 | 0.3 to 1 | ***** (a fold increase >1.65 is indicated by five stars (*****)) | ** (an EC1.5× between >1 μM and ≤3 μM is indicated by two stars (**))
7 | COc1ccc(-c2cc(=O)n3cc(C4=CCNCC4)ncc3n2)cc1OC [Cpd 402, 2-(3,4-dimethoxyphenyl)-7-(1,2,3,6-tetrahydropyridin-4-yl)-4H-pyrazino[1,2-a]pyrimidin-4-one] | 205 to 208 | < 0.1 | **** (a fold increase between >1.5 and ≤1.65 is indicated by four stars (****)) | ** (an EC1.5× between >1 μM and ≤3 μM is indicated by two stars (**))
8 | Cn1ncc2cc(-c3cc(=O)n4cc(C5=CCNCC5)ccc4n3)ccc21 [Cpd 443, 2-(1-methyl-1H-indazol-5-yl)-7-(1,2,3,6-tetrahydropyridin-4-yl)-4H-pyrido[1,2-a]pyrimidin-4-one] | 200 to 203 | < 0.1 | ***** (a fold increase >1.65 is indicated by five stars (*****)) | **** (an EC1.5x≤0.3 μM is indicated by four stars (****))

Second part, led by results:

Row | melting point [°C] | SMILES | EC (1.5-fold increase) [1] [µM] | maximum fold (Fold) increase of Smn protein [2] | EC1.5x for Smn protein expression [2]
9 | 221 to 224 | COc1ccc(-c2cc(=O)n3cc(OC4CCNCC4)ccc3n2)cc1OC [Cpd 237, 2-(3,4-dimethoxyphenyl)-7-(piperidin-4-yloxy)-4H-pyrido[1,2-a]pyrimidin-4-one] | 1 to 3 | *** (a fold increase between >1.35 and ≤1.5 is indicated by three stars (***)) | 
10 | 143 to 149 | COc1ccc(-c2cc(=O)n3cc(N(C)[C@@H]4CCN(C)C4)ccc3n2)cc1F [Cpd 239, 2-(3-fluoro-4-methoxyphenyl)-7-{methyl[(3R)-1-methylpyrrolidin-3-yl]amino}-4H-pyrido[1,2-a]pyrimidin-4-one] | 1 to 3 | * (A maximum fold increase of ≤1.2 is indicated by one star (*)) | 
11 | 146 to 150 | COc1ccc(-c2cc(=O)n3cc(C4=CCCNC4)ccc3n2)cc1OC [Cpd 263, 2-(3,4-dimethoxyphenyl)-7-(1,2,5,6-tetrahydropyridin-3-yl)-4H-pyrido[1,2-a]pyrimidin-4-one] | 0.3 to 1 | **** (a fold increase between >1.5 and ≤1.65 is indicated by four stars (****)) | *** (an EC1.5× between >0.3 μM and ≤1 μM is indicated by three stars (***))
12 | 268 to 283 | COc1ccc(-c2ccc3nc(N4CCC(N)CC4)cc(=O)n3c2)cc1F [Cpd 276, 2-(4-aminopiperidin-1-yl)-7-(3-fluoro-4-methoxyphenyl)-4H-pyrido[1,2-a]pyrimidin-4-one] | 0.3 to 1 | * (A maximum fold increase of ≤1.2 is indicated by one star (*)) | 
13 | 207 to 209 | Cc1nc2c(F)cc(-c3cc(=O)n4cc(N5CCN[C@@H](C)C5)ccc4n3)cc2o1 [Cpd 306, 2-(4-fluoro-2-methyl-1,3-benzoxazol-6-yl)-7-[(3S)-3-methylpiperazin-1-yl]-4H-pyrido[1,2-a]pyrimidin-4-one] | < 0.1 | ***** (a fold increase >1.65 is indicated by five stars (*****)) | **** (an EC1.5x≤0.3 μM is indicated by four stars (****))
14 | 115 to 117 | Cc1nc2ccc(-c3cc(=O)n4cc(N5CCN[C@@H](C)C5)ccc4c3)cc2o1 [Cpd 322, 2-(2-methyl-1,3-benzoxazol-6-yl)-7-[(3S)-3-methylpiperazin-1-yl]-4H-quinolizin-4-one] | < 0.1 | **** (a fold increase between >1.5 and ≤1.65 is indicated by four stars (****)) | *** (an EC1.5× between >0.3 μM and ≤1 μM is indicated by three stars (***))
15 | 178 to 184 | CCCNC1CCN(c2cc(C)c3nc(-c4ccc(OC)c(OC)c4)cc(=O)n3c2)CC1 [Cpd 407, 2-(3,4-dimethoxyphenyl)-9-methyl-7-[4-(propylamino)piperidin-1-yl]-4H-pyrido[1,2-a]pyrimidin-4-one] | < 0.1 | *** (a fold increase between >1.35 and ≤1.5 is indicated by three stars (***)) | 
16 | 198 to 200 | Cc1cc2cc(-c3cc(=O)n4cc(N5CCNCC5)ccc4n3)oc2c(C)n1 [Cpd 486, 2-(5,7-dimethylfuro[2,3-c]pyridin-2-yl)-7-(piperazin-1-yl)-4H-pyrido[1,2-a]pyrimidin-4-one] | < 0.1 | **** (a fold increase between >1.5 and ≤1.65 is indicated by four stars (****)) | **** (an EC1.5x≤0.3 μM is indicated by four stars (****))
